How the values were obtained:
[1] = Compound was tested for binding activity against Opioid receptor kappa 1 in bovine striatal membranes using 1 nM [3H]U-69593 as the radioligand.
[2] = Compound was tested for binding activity against Opioid receptor delta 1 in bovine striatal membranes using 0.2 nM [3H]p-CI-DPDPE as the radioligand.

`O=C(CSSCC(=O)N[C@@]12CCC(=O)[C@@H]3Oc4c(O)ccc5c4[C@@]31CCN(CC1CCC1)[C@@H]2C5)N[C@@]12CCC(=O)[C@@H]3Oc4c(O)ccc5c4[C@@]31CCN(CC1CCC1)[C@@H]2C5` [N-CBM-TAMO] showed an IC50 [1] of 6.3 nM and an IC50 [2] of 12 nM.
